The test system of one assay is NCI-H295R cells. The assay can be described thus: Proliferation inhibitory action on NCI-H295R (CellTiter-Glo, 7 days). Type of assay: cell-based, human. The conditions noted are these: Homo sapiens, NCI-H295R, 168 h. As for the experimental part: DMSO solutions of each compound were serially diluted with DMSO using a D300e Digital Dispenser (TECAN), and added to a 384-well plate (Thermo Fisher Scientific Inc.). NCI-H295R cells were seeded in a 384-well plate at 2×10^3 cells/40 μL/well and cultured for 7 days in a 37° C., 5% CO2 incubator. […] On the first day of culture (day 0) and the seventh day of culture (day 7), 10 μL/well of CellTiter-Glo (registered trademark) 2.0 Assay (Promega) was added, and the luminescence signal was detected using a multimode plate reader (EnVision, PerkinElmer). The cell proliferation rate was calculated from the luminescence amount on the day of compound addition (CO), the luminescence amount of the compound-free group after 7 days of culture (C7), and the luminescence amount of the compound-added group (T7), based on the following formula.
Background: In ATP-based viability assays light output follows the ATP content of the culture.

The target of a further assay is T1, SF-1 (Homo sapiens, UniProt Q13285).
T1 construct: NCI-H295R SF-1-HiBiT cells with HiBiT tag knocked in at the endogenous SF1 locus; host or cells: NCI-H295R SF-1-HiBiT (knock-in at endogenous locus)
The assay can be described thus: SF1 degradation induction in NCI-H295R SF-1-HiBiT cells (HiBiT DC50). In kind it is cell-based. As to conditions: 24 hr, concentration that induces 50% degradation of SF-1. The protocol:
NCI-H295R SF-1-HiBiT cells were seeded in a 384-well plate (Thermo Fisher Scientific Inc.) at 1×10^4 cells/50 μL/well and cultured at 37° C. in a 5% CO2 incubator for 24 hr. DMSO solutions of each compound were serially diluted with DMSO using a D300e Digital Dispenser (TECAN), added to a 384-well plate, and cultured in a 5% CO2 incubator at 37° C. for 24 hr. […] After completion of culture, the medium was discarded, and Nano-Glo (registered trade mark) HiBiT Lytic Detection System (Promega, Cat. No. N3040) was added at 20 μL/well and stirred with a plate mixer. Luminescence signals were then detected using a multimode plate reader (EnVision Xcite, PerkinElmer). The SF-1 protein degradation rate was calculated from the amount of luminescence (C) in the compound-free group and the amount of luminescence (T) in the compound-added group, based on the following formula.
The obtained data was analyzed using GraphPad Prism9 (GraphPad Software Inc.) or Genedata Screener (Genedata AG) to calculate the concentration that induces 50% degradation of SF-1 (DC50 value).

As usually defined, the GI50 is the concentration giving 50% growth inhibition. Low readings indicate more potent growth inhibition, high ones less potent growth inhibition. By DC50 is commonly meant the midpoint of the concentration-degradation curve. High values mean degradation only at high concentration, low ones degradation at low concentration. The molecule `COc1ccc([C@]2(CCN(Cc3ccc(C4=CC[C@H](C(=O)N5CCN(Cc6ccc7c(c6)n(C)c(=O)n7C6CCC(=O)NC6=O)CC5)CC4)c(F)c3)CC(C)(C)C(F)(F)F)CCOC(C)(C)C2)cc1` (stereo partly drawn) [BQ4, 3-{5-[(4-{[(4R)-2′-Fluoro-4′-{[{2-[(4R)-4-(4-methoxyphenyl)-2,2-dimethyltetrahydro-2H-pyran-4-yl]ethyl}(3,3,3-trifluoro-2,2-dimethylpropyl)amino]methyl}-2,3,4,5-tetrahydro[biphenyl]-4-yl]carbonyl}piperazin-1-yl)methyl]-3-methyl-2-oxo-2,3-dihydro-1H-benzimidazol-1-yl}piperidine-2,6-dione] showed a GI50 in the assay with NCI-H295R cells of 28 nM. The same molecule returned a DC50 on SF-1 of 4.5 nM.

Molecule `COc1ccc([C@]2(CCN(Cc3ccc(C4=CCC(CN5CCN(C(=O)c6ccc7c(c6)CN(C6CCC(=O)NC6=O)C7=O)CC5)CC4)cc3)CC(C)(C)C(F)(F)F)CCOC(C)(C)C2)cc1` (stereo partly drawn) [Example AG7, 3-[5-({4-[(4′-{[{2-[(4R)-4-(4-Methoxyphenyl)-2,2-dimethyltetrahydro-2H-pyran-4-yl]ethyl}(3,3,3-trifluoro-2,2-dimethylpropyl)amino]methyl}-2,3,4,5-tetrahydro[biphenyl]-4-yl)methyl]piperazin-1-yl}carbonyl)-1-oxo-1,3-dihydro-2H-isoindol-2-yl]piperidine-2,6-dione] gave a GI50 with NCI-H295R cells of 147 nM. At SF-1, this molecule showed a DC50 of 8.7 nM.

`COc1ccc([C@]2(CCN(Cc3ccc(C4=CC[C@H](CN5CCN(C(=O)c6ccc7c8c6CCCn8c(=O)n7[C@H]6CCC(=O)NC6=O)CC5)CC4)cc3)CC(C)(C)C(F)(F)F)CCOC(C)(C)C2)cc1` [BF6, (3S)-3-{7-[(4-{[(4R)-4′-{[{2-[(4R)-4-(4-Methoxyphenyl)-2,2-dimethyltetrahydro-2H-pyran-4-yl]ethyl}(3,3,3-trifluoro-2,2-dimethylpropyl)amino]methyl}-2,3,4,5-tetrahydro[biphenyl]-4-yl]methyl}piperazin-1-yl)carbonyl]-2-oxo-5,6-dihydro-4H-imidazo[4,5,1-ij}quinolin-1(2H)-yl}piperidine-2,6-dione] yielded a GI50 with NCI-H295R cells of 75 nM. At SF-1, this molecule had a 50% degradation concentration (DC50) of 10 nM.

The molecule `COc1ccc([C@]2(CCN(Cc3ccc(C4=CC[C@H](C(=O)N5CCN(Cc6ccc7c8c6CN(C)CCn8c(=O)n7C6CCC(=O)NC6=O)CC5)CC4)c(F)c3)CC(C)(C)C(F)(F)F)CCOC(C)(C)C2)cc1` (stereo partly drawn) [CB10, 3-{8-[(4-{[(4R)-2′-Fluoro-4′-{[{2-[(4R)-4-(4-methoxyphenyl)-2,2-dimethyltetrahydro-2H-pyran-4-yl]ethyl}(3,3,3-trifluoro-2,2-dimethylpropyl)amino]methyl}-2,3,4,5-tetrahydro[biphenyl]-4-yl]carbonyl}piperazin-1-yl)methyl]-6-methyl-2-oxo-4,5,6,7-tetrahydroimidazo[4,5,1-jk][1,4]benzodiazepin-1(2H)-yl}piperidine-2,6-dione] came in with a GI50 in the assay with NCI-H295R cells of 85 nM. The same molecule showed a DC50 on SF-1 of 13 nM.

Regarding `COc1ccc([C@]2(CCN(Cc3ccc(OC4CC5(CCN(CC(=O)Nc6ccc7c(c6)C(=O)N(C6CCC(=O)NC6=O)C7=O)CC5)C4)cc3)CC(C)(C)C(F)(F)F)CCOC(C)(C)C2)cc1` (stereo partly drawn) [AQ1, N-[2-(2,6-Dioxopiperidin-3-yl)-1,3-dioxo-2,3-dihydro-1H-isoindol-5-yl]-2-[2-(4-{[{2-[(4R)-4-(4-methoxyphenyl)-2,2-dimethyltetrahydro-2H-pyran-4-yl]ethyl}(3,3,3-trifluoro-2,2-dimethylpropyl)amino]methyl}phenoxy)-7-azaspiro[3.5]nonan-7-yl]acetamide], in the assay with NCI-H295R cells, growth was halved (GI50) at 286 nM. In addition, on SF-1, the DC50 was determined as 56 nM.

In the case of `COc1ccc([C@]2(CCN(Cc3ccc(C4=CC[C@@H](CN5CCN(C(=O)c6ccc7c8c6NCCn8c(=O)n7C6CCC(=O)NC6=O)CC5)CC4)cc3)CC(C)(C)C(F)(F)F)CCOC(C)(C)C2)cc1` (stereo partly drawn) [BZ7, 3-{7-[(4-{[(4S)-4′-{[{2-[(4R)-4-(4-Methoxyphenyl)-2,2-dimethyltetrahydro-2H-pyran-4-yl]ethyl}(3,3,3-trifluoro-2,2-dimethylpropyl)amino]methyl)-2,3,4,5-tetrahydro[biphenyl]-4-yl]methyl}piperazin-1-yl)carbonyl]-2-oxo-5,6-dihydro-4H-imidazo[1,5,4-de]quinoxalin-1(2H)-yl}piperidine-2,6-dione], the GI50 in the assay with NCI-H295R cells stood at 27 nM. Further, at SF-1, half-maximal degradation (DC50) was put at 4 nM.

For `COc1ccc([C@]2(CCN(Cc3ccc(C4=CCC(C(=O)N[C@H]5C[C@H](Nc6ccc7c(c6)n(C)c(=O)n7C6CCC(=O)NC6=O)C5)CC4)cc3)CC(C)(C)C(F)(F)F)CCOC(C)(C)C2)cc1` (stereo partly drawn) [AY8, N-(Trans-3-{[1-(2,6-dioxopiperidin-3-yl)-3-methyl-2-oxo-2,3-dihydro-1H-benzimidazol-5-yl]amino}cyclobutyl)-4′-{[{2-[(4R)-4-(4-methoxyphenyl)-2,2-dimethyltetrahydro-2H-pyran-4-yl]ethyl}(3,3,3-trifluoro-2,2-dimethylpropyl)amino]methyl}-2,3,4,5-tetrahydro[biphenyl]-4-carboxamide], the GI50 in the assay on NCI-H295R cells was 71 nM. The molecule further gave a DC50 on SF-1 of 7.3 nM.

In turn, `COc1ccc(C2(CCN(Cc3ccc(OC4CCN(CC(=O)Nc5cccc6c5n(C)c(=O)n6C5CCC(=O)NC5=O)CC4)cc3)CC(C)(C)C(F)(F)F)CCOCC2)cc1` (centres unmarked) [Example AC6, N-[1-(2,6-Dioxopiperidin-3-yl)-3-methyl-2-oxo-2,3-dihydro-1H-benzimidazol-4-yl]-2-[4-(4-{[{2-[4-(4-methoxyphenyl)tetrahydro-2H-pyran-4-yl]ethyl}(3,3,3-trifluoro-2,2-dimethylpropyl)amino]methyl}phenoxy)piperidin-1-yl]acetamide] displayed a GI50 with NCI-H295R cells of 73 nM. This molecule also yielded a DC50 at SF-1 of 26 nM.

For the molecule `COc1ccc([C@]2(CCN(Cc3ccc(C4=CC[C@H](C(=O)N5C6COCC5CC(Nc5ccc7c8c5CCCn8c(=O)n7C5CCC(=O)NC5=O)C6)CC4)c(F)c3)CC(C)(C)C(F)(F)F)CCOC(C)(C)C2)cc1` (stereo partly drawn) [CC3, 3-[7-{[(7-Exo)-9-{[(4R)-2′-fluoro-4′-{[{2-[(4R)-4-(4-methoxyphenyl)-2,2-dimethyltetrahydro-2H-pyran-4-yl]ethyl)(3,3,3-trifluoro-2,2-dimethylpropyl)amino]methyl}-2,3,4,5-tetrahydro[biphenyl]-4-yl]carbonyl}-3-oxa-9-azabicyclo[3.3.1]nonan-7-yl]amino}-2-oxo-5,6-dihydro-4H-imidazo[4,5,1-ij]quinolin-1(2H)-yl]piperidine-2,6-dione], in the assay with NCI-H295R cells, halving of growth (GI50) required 36 nM. At SF-1, this molecule registered a DC50 of 4.9 nM.

Take `COc1ccc([C@]2(CCN(Cc3ccc(OC4CC5(CCN(CC(=O)Nc6ccc7c(c6)CN(C6CCC(=O)NC6=O)C7=O)CC5)C4)cc3)CC(C)(C)C(F)(F)F)CCOC(C)(C)C2)cc1` (stereo partly drawn) [Example AF1, N-[2-(2,6-Dioxopiperidin-3-yl)-1-oxo-2,3-dihydro-1H-isoindol-5-yl]-2-[2-(4-{[{2-[(4R)-4-(4-methoxyphenyl)-2,2-dimethyltetrahydro-2H-pyran-4-yl]ethyl}(3,3,3-trifluoro-2,2-dimethylpropyl)amino]methyl}phenoxy)-7-azaspiro[3.5]nonan-7-yl]acetamide]: the GI50 with NCI-H295R cells was 121 nM. This molecule also showed a DC50 at SF-1 of 6.9 nM.

The values are drawn from patent US12606533B2, “3-phenylpropylamine derivative” (DAIICHI SANKYO COMPANY, LIMITED, priority 2023, dated 2026).
